Reference: PMC7211203 (European Journal of Drug Metabolism and Pharmacokinetics, 2020)
Entries after “also recorded” stand apart in the source; their conditions may differ. Read-outs that look alike come from different tables or passages of the source.

Experiments:
[1] = format: in vivo, human; settings: for Vd/F: Vz/F; for tmax: median (minimum, maximum)
[2] = target: CYP3A4 (Homo sapiens, UniProt P08684); format: in vivo; settings: for Change in t1/2 when administered with lenvatinib: D1 and D14 vs D −3
[3] = D −3, patients of comparison D1 vs D −3
[4] = D −3, patients of comparison D14 vs D −3
[5] = Day −3, midazolam alone, mean (SD)
[6] = Day 1, with single dose of lenvatinib, mean (SD)
[7] = Day 14, with lenvatinib at steady state, mean (SD)
[8] = D1 vs D −3 (single dose of lenvatinib 24 mg)
[9] = D14 vs D −3 (lenvatinib 24 mg at steady state)

Chain of CYP3A4 (P08684 whole entry): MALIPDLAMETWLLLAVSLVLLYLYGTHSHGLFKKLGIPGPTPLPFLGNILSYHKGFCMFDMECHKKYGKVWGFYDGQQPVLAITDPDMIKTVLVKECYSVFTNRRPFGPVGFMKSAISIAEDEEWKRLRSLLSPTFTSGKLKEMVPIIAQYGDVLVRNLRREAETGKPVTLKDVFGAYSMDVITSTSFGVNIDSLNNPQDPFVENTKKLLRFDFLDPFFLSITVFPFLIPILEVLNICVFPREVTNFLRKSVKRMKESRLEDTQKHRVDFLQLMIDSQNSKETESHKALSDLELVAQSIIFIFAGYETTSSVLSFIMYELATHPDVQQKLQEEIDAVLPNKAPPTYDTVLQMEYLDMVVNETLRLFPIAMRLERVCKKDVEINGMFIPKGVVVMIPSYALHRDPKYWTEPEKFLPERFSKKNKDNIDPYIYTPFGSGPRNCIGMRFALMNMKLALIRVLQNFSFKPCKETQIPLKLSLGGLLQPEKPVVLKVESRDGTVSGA

Cc1ncc2n1-c1ccc(Cl)cc1C(c1ccccc1F)=NC2 [midazolam]
Cmax geometric mean, lenvatinib + midazolam (test) ([1]; D14, comparison D14 vs D −3): 24.76 ng/mL | Cmax geometric mean, midazolam (reference) [1, 3]: 24.73 ng/mL | AUC0–24 geometric mean, midazolam (reference) [1, 4]: 88.30 ng·h/mL | Cmax geometric mean, midazolam (reference) [1, 4]: 24.10 ng/mL | Cmax [1, 5]: 26.5 (10.7) ng/mL | concentration at 1 h ([1]; human, plasma, oral, 4 mg, Plasma concentration, mean (standard deviation), 1 h, D −3 midazolam only): 19 ng/mL | concentration at 2 h ([1]; human, plasma, oral, 4 mg, Plasma concentration, mean (standard deviation), 2 h, D −3 midazolam only): 13.1 ng/mL | concentration at 3 h ([1]; human, plasma, oral, 4 mg, Plasma concentration, mean (standard deviation), 3 h, D −3 midazolam only): 8.78 ng/mL | concentration at 4 h ([1]; human, plasma, oral, 4 mg, Plasma concentration, mean (standard deviation), 4 h, D −3 midazolam only): 6.12 ng/mL | concentration at 6 h ([1]; human, plasma, oral, 4 mg, Plasma concentration, mean (standard deviation), 6 h, D −3 midazolam only): 4.19 ng/mL | concentration at 8 h ([1]; human, plasma, oral, 4 mg, Plasma concentration, mean (standard deviation), 8 h, D −3 midazolam only): 3.24 ng/mL | concentration at 10 h ([1]; human, plasma, oral, 4 mg, Plasma concentration, mean (standard deviation), 10 h, D −3 midazolam only): 2.51 ng/mL | concentration at 24 h ([1]; human, plasma, oral, 4 mg, Plasma concentration, mean (standard deviation), 24 h, D −3 midazolam only): 0.53 ng/mL | Vd/F ([1]; human, plasma, oral, 4 mg, Day −3, midazolam alone, mean (SD)): 382 L | half-life ([1]; human, plasma, oral, 4 mg, t1/2, Day −3, midazolam alone, mean (SD)): 5.87 h | AUC(0-t) ([1]; human, plasma, oral, AUC0–24, Day 14, midazolam with lenvatinib at steady state, mean (SD), n = 19): 117 ng·h/mL | Cmax ([1]; human, plasma, oral, Cmax, Day 1, with single dose of lenvatinib, mean (SD)): 24.8 ng/mL | Cmax ([1]; human, plasma, oral, Cmax, Day 14, with lenvatinib at steady state, mean (SD)): 28.3 ng/mL | concentration at 0.5 h ([1]; human, plasma, oral, Plasma concentration, mean (standard deviation), 0.5 h, D14 multiple doses of lenvatinib and 1 dose of midazolam): 23.7 ng/mL | concentration at 1 h ([1]; human, plasma, oral, Plasma concentration, mean (standard deviation), 1 h, D1 1 dose of lenvatinib and midazolam): 16.5 ng/mL | concentration at 1 h ([1]; human, plasma, oral, Plasma concentration, mean (standard deviation), 1 h, D14 multiple doses of lenvatinib and 1 dose of midazolam): 23.1 ng/mL | concentration at 1.5 h ([1]; human, plasma, oral, Plasma concentration, mean (standard deviation), 1.5 h, D14 multiple doses of lenvatinib and 1 dose of midazolam): 17.8 ng/mL | concentration at 2 h ([1]; human, plasma, oral, Plasma concentration, mean (standard deviation), 2 h, D1 1 dose of lenvatinib and midazolam): 11.3 ng/mL | concentration at 2 h ([1]; human, plasma, oral, Plasma concentration, mean (standard deviation), 2 h, D14 multiple doses of lenvatinib and 1 dose of midazolam): 13.9 ng/mL | concentration at 3 h ([1]; human, plasma, oral, Plasma concentration, mean (standard deviation), 3 h, D1 1 dose of lenvatinib and midazolam): 7.89 ng/mL | concentration at 3 h ([1]; human, plasma, oral, Plasma concentration, mean (standard deviation), 3 h, D14 multiple doses of lenvatinib and 1 dose of midazolam): 9.93 ng/mL | concentration at 4 h ([1]; human, plasma, oral, Plasma concentration, mean (standard deviation), 4 h, D1 1 dose of lenvatinib and midazolam): 5.67 ng/mL | concentration at 4 h ([1]; human, plasma, oral, Plasma concentration, mean (standard deviation), 4 h, D14 multiple doses of lenvatinib and 1 dose of midazolam): 7.58 ng/mL | concentration at 6 h ([1]; human, plasma, oral, Plasma concentration, mean (standard deviation), 6 h, D1 1 dose of lenvatinib and midazolam): 4.08 ng/mL | concentration at 6 h ([1]; human, plasma, oral, Plasma concentration, mean (standard deviation), 6 h, D14 multiple doses of lenvatinib and 1 dose of midazolam): 5.21 ng/mL | concentration at 8 h ([1]; human, plasma, oral, Plasma concentration, mean (standard deviation), 8 h, D1 1 dose of lenvatinib and midazolam): 2.96 ng/mL | concentration at 8 h ([1]; human, plasma, oral, Plasma concentration, mean (standard deviation), 8 h, D14 multiple doses of lenvatinib and 1 dose of midazolam): 4.05 ng/mL | concentration at 10 h ([1]; human, plasma, oral, Plasma concentration, mean (standard deviation), 10 h, D1 1 dose of lenvatinib and midazolam): 2.39 ng/mL | concentration at 10 h ([1]; human, plasma, oral, Plasma concentration, mean (standard deviation), 10 h, D14 multiple doses of lenvatinib and 1 dose of midazolam): 3.47 ng/mL | concentration at 24 h ([1]; human, plasma, oral, Plasma concentration, mean (standard deviation), 24 h, D1 1 dose of lenvatinib and midazolam): 0.628 ng/mL | concentration at 24 h ([1]; human, plasma, oral, Plasma concentration, mean (standard deviation), 24 h, D14 multiple doses of lenvatinib and 1 dose of midazolam): 1.25 ng/mL | Vd/F ([1]; human, plasma, oral, Day 1, with single dose of lenvatinib, mean (SD)): 481 L | Vd/F ([1]; human, plasma, oral, Day 14, with lenvatinib at steady state, mean (SD)): 544 L | half-life ([1]; human, plasma, oral, t1/2, Day 1, with single dose of lenvatinib, mean (SD)): 6.48 h | half-life ([1]; human, plasma, oral, t1/2, Day 14, with lenvatinib at steady state, mean (SD)): 6.76 h | tmax ([1]; human, plasma, oral, tmax, Day 1, with single dose of lenvatinib): 0.63 h | Change in t1/2 when administered with lenvatinib [2]: little change; also recorded: no statistically significant change | Difference in median tmax ([2]; D1 vs D −3): 0.00 h | Difference in median tmax ([2]; D14 vs D −3): 0.00 h | Change in CL/F and Vz/F over time ([2]; D −3, D1, D14): no statistically significant change

OCc1ncc2n1-c1ccc(Cl)cc1C(c1ccccc1F)=NC2 [1′-OH midazolam, 1′-hydroxy-midazolam]
Plasma concentration, mean (standard deviation) ([1]; 0.5 h, D1 1 dose of lenvatinib and midazolam): 10.433 (11.8436) ng/mL | Plasma concentration, mean (standard deviation) ([1]; 0.5 h, D14 multiple doses of lenvatinib and 1 dose of midazolam): 8.048 (12.1629) ng/mL | Plasma concentration, mean (standard deviation) ([1]; 0.5 h, D −3 midazolam only): 7.929 (8.1952) ng/mL | Plasma concentration, mean (standard deviation) ([1]; 1 h, D1 1 dose of lenvatinib and midazolam): 9.230 (9.8222) ng/mL | Plasma concentration, mean (standard deviation) ([1]; 1 h, D14 multiple doses of lenvatinib and 1 dose of midazolam): 8.884 (8.9281) ng/mL | Plasma concentration, mean (standard deviation) ([1]; 1 h, D −3 midazolam only): 8.259 (6.9675) ng/mL | Plasma concentration, mean (standard deviation) ([1]; 1.5 h, D1 1 dose of lenvatinib and midazolam): 8.265 (9.0440) ng/mL | Plasma concentration, mean (standard deviation) ([1]; 1.5 h, D14 multiple doses of lenvatinib and 1 dose of midazolam): 7.314 (6.7286) ng/mL | Plasma concentration, mean (standard deviation) ([1]; 1.5 h, D −3 midazolam only): 7.307 (5.9056) ng/mL | Plasma concentration, mean (standard deviation) ([1]; 2 h, D1 1 dose of lenvatinib and midazolam): 6.921 (8.0144) ng/mL | Plasma concentration, mean (standard deviation) ([1]; 2 h, D14 multiple doses of lenvatinib and 1 dose of midazolam): 5.767 (5.0953) ng/mL | Plasma concentration, mean (standard deviation) ([1]; 2 h, D −3 midazolam only): 5.736 (4.1774) ng/mL | Plasma concentration, mean (standard deviation) ([1]; 3 h, D1 1 dose of lenvatinib and midazolam): 4.888 (7.3050) ng/mL | Plasma concentration, mean (standard deviation) ([1]; 3 h, D14 multiple doses of lenvatinib and 1 dose of midazolam): 4.027 (3.2372) ng/mL | Plasma concentration, mean (standard deviation) ([1]; 3 h, D −3 midazolam only): 3.698 (2.9719) ng/mL | Plasma concentration, mean (standard deviation) ([1]; 4 h, D1 1 dose of lenvatinib and midazolam): 3.395 (5.2011) ng/mL | Plasma concentration, mean (standard deviation) ([1]; 4 h, D14 multiple doses of lenvatinib and 1 dose of midazolam): 2.919 (2.1611) ng/mL | Plasma concentration, mean (standard deviation) ([1]; 4 h, D −3 midazolam only): 2.359 (1.9899) ng/mL | Plasma concentration, mean (standard deviation) ([1]; 6 h, D1 1 dose of lenvatinib and midazolam): 2.059 (2.3381) ng/mL | Plasma concentration, mean (standard deviation) ([1]; 6 h, D14 multiple doses of lenvatinib and 1 dose of midazolam): 1.773 (1.4213) ng/mL | Plasma concentration, mean (standard deviation) ([1]; 6 h, D −3 midazolam only): 1.447 (1.4379) ng/mL | Plasma concentration, mean (standard deviation) ([1]; 8 h, D1 1 dose of lenvatinib and midazolam): 1.132 (1.0593) ng/mL | Plasma concentration, mean (standard deviation) ([1]; 8 h, D14 multiple doses of lenvatinib and 1 dose of midazolam): 1.372 (1.2790) ng/mL | Plasma concentration, mean (standard deviation) ([1]; 8 h, D −3 midazolam only): 1.024 (0.9525) ng/mL | Plasma concentration, mean (standard deviation) ([1]; 10 h, D1 1 dose of lenvatinib and midazolam): 0.852 (0.7166) ng/mL | Plasma concentration, mean (standard deviation) ([1]; 10 h, D14 multiple doses of lenvatinib and 1 dose of midazolam): 1.055 (1.0511) ng/mL | Plasma concentration, mean (standard deviation) ([1]; 10 h, D −3 midazolam only): 0.767 (0.6376) ng/mL | Plasma concentration, mean (standard deviation) ([1]; 24 h, D1 1 dose of lenvatinib and midazolam): 0.186 (0.1472) ng/mL | Plasma concentration, mean (standard deviation) ([1]; 24 h, D14 multiple doses of lenvatinib and 1 dose of midazolam): 0.282 (0.1998) ng/mL | Plasma concentration, mean (standard deviation) ([1]; 24 h, D −3 midazolam only): 0.158 (0.1110) ng/mL | AUC0–24 geometric mean, lenvatinib + midazolam (test) ([1]; D1, comparison D1 vs D −3): 37.91 ng·h/mL | Cmax geometric mean, lenvatinib + midazolam (test) ([1]; D1, comparison D1 vs D −3): 9.54 ng/mL | AUC0–24 geometric mean, lenvatinib + midazolam (test) ([1]; D14, comparison D14 vs D −3): 36.93 ng·h/mL | Cmax geometric mean, lenvatinib + midazolam (test) ([1]; D14, comparison D14 vs D −3): 8.24 ng/mL | AUC0–24 geometric mean, midazolam (reference) [1, 3]: 33.84 ng·h/mL | Cmax geometric mean, midazolam (reference) [1, 3]: 9.04 ng/mL | AUC0–24 geometric mean, midazolam (reference) [1, 4]: 30.81 ng·h/mL | Cmax geometric mean, midazolam (reference) [1, 4]: 8.76 ng/mL | AUC0–24 ([1]; Day 1, midazolam with single dose of lenvatinib 24 mg, mean (SD), n = 28): 48.6 (47.8) ng × h/mL | Cmax [1, 6]: 12.7 (11.6) ng/mL | t1/2 [1, 6]: 5.48 (2.26) h | tmax ([1]; Day 1, with single dose of lenvatinib): 0.75 (0.25, 2.00) h | AUC0–24 ([1]; Day 14, midazolam with lenvatinib at steady state, mean (SD), n = 19): 41.3 (34.3) ng × h/mL | Cmax [1, 7]: 10.7 (11.6) ng/mL | t1/2 [1, 7]: 5.53 (1.99) h | tmax ([1]; Day 14, with lenvatinib at steady state): 0.77 (0.25, 1.50) h | AUC0–24 ([1]; Day −3, midazolam 4 mg oral alone, mean (SD), n = 29): 38.5 (26.5) ng × h/mL | Cmax [1, 5]: 11.0 (8.64) ng/mL | t1/2 [1, 5]: 5.58 (1.15) h | tmax ([1]; Day −3, midazolam alone): 0.75 (0.25, 2.02) h | Change in t1/2 when administered with lenvatinib [2]: no statistically significant change | Difference in median tmax ([2]; D1 vs D −3): 0.00 h | AUC0–24 geometric mean ratio (test/reference) [2, 8]: 1.120 | Cmax geometric mean ratio (test/reference) [2, 8]: 1.055 | Difference in median tmax ([2]; D14 vs D −3): 0.00 h | AUC0–24 geometric mean ratio (test/reference) [2, 9]: 1.199 | Cmax geometric mean ratio (test/reference) [2, 9]: 0.940
